Laboratory results taken from patent US10532068B2, “Dual molecular delivery of oligonucleotides and peptide containing conjugates” (Merck Sharp & Dohme Corp., priority 2013, dated 2020).
Strand notation (5' to 3'): a small letter for the sugar, then the base; units joined by * are phosphorothioate-linked, units joined directly phosphodiester-linked; [ ] holds rarer units or linkages, { } end groups; capitals alone tell only the bases. Where no end group is shown, it is not given here. [ ]: non-standard residue; d: D form. {NH2C6-invAb} = cap: inverted abasic residue carrying an aminohexyl phosphate (attachment handle); [invAb] = inverted abasic unit; TGN = not defined here; m = 2'-O-methyl; f = 2'-fluoro

Assays:
[1] = tested on: CTNNB1; assay: In vivo evaluation in mice: liver mRNA knockdown measurement (TaqMan qPCR); set-up: species or system CD-1 mice; conditions: mice
Description: (§1) Female CD-1 mice (Charles River) were injected in accordance with either a sequential dosing paradigm or a co-dosing paradigm. In the sequential dosing paradigm, the targeted siRNA (SCE) is dosed at t=0 and the targeted peptide is separately dosed up to 2 hr before the SCE (−2 hr) or up to 24 hr after the SCE (+24 hr). In the co-dosing paradigm, the SCE and peptides are co-formulated and dosed together in the same formulation as a single injection at t=0. The mice were dosed either by intravenous (i.v.) or subcutaneous (s.c.) injection of SCE and peptide. For the i.v. doses, the compounds were injected into the tail vein of the mice. For the s.c. doses, the compounds were injected in the subcutaneous space on the back of the mouse between the shoulder blades. At the indicated harvest times (measured from t=0 when the siRNA was dosed, regardless of when the peptide was dosed), the animals were sacrificed and 3 mm liver punches were collected, preserved in RNAlater (Ambion), and stored at 4° C. Separate 5 mm liver punches were collected, placed in 96-well plates, frozen on dry ice, and stored at −80° C. until use.
The 3 mm liver punches were removed from RNAlater and homogenized in Trizol (Invitrogen) using a bead mill tissue lyser (Qiagen); disruption was performed for two 5-minute cycles at 30 Hz. RNA extraction was performed using 1-bromo-2-chloropropane (Acros Organics) and total RNA was isolated from the aqueous phase using the MagMax RNA isolation method (Ambion). […] TaqMan qPCR analysis was performed with an ABI 7900 Real-Time PCR System using TaqMan Fast Advanced Master Mix (Applied Biosystems). All TaqMan probes and primers for CTNNB1 and PPIB (housekeeping gene) were purchased from Applied Biosystems as pre-validated gene expression assays. Results are calculated by the comparative Ct method, where the difference between the CTNNB1 Ct value and the PPIB Ct value (ΔCt) is calculated and then further normalized relative to the PBS control by taking a second difference (ΔΔCt), as described previously (1).

[2] = Lethality observed in the in vivo evaluation in mice; set-up: species or system CD-1 mice; key to lethal at this dose (asterisk at targeted peptide dose): *: lethal at this dose
Description: as §1

[3] = siRNA metabolic stability (FIG. 6 legend); conditions: order siRNA-I>siRNA-V>siRNA-VI
[4] = Table 6, sequential, peptide IV 15 min after siRNA IV, TGN-L-siRNA-III 0.5 mg/kg, peptide 2 mg/kg
[5] = Table 6, sequential, peptide IV 15 min after siRNA IV, TGN-L-siRNA-III 0.5 mg/kg, peptide 10 mg/kg
[6] = Table 6, sequential, peptide IV 15 min after siRNA IV, TGN-L-siRNA-III 0.5 mg/kg, peptide 25 mg/kg
[7] = Table 6, TGN-L-siRNA-III 0.5 mg/kg IV, peptide 25 mg/kg IV 15 min after siRNA
[8] = Table 6, TGN-L-siRNA-III 0.25 mg/kg IV, peptide 10 mg/kg IV 15 min after siRNA
[9] = Table 6, sequential, peptide IV 15 min after siRNA IV, TGN-L-siRNA-II 0.25 mg/kg, peptide 1 mg/kg
[10] = Table 6, sequential, peptide IV 15 min after siRNA IV, TGN-L-siRNA-II 0.25 mg/kg, peptide 3 mg/kg
[11] = Table 6, sequential, peptide IV 15 min after siRNA IV, TGN-L-siRNA-III 0.25 mg/kg, peptide 5 mg/kg

In the case of “TGN-S-S-SEQ ID NO: 1248 (D) (C[dF][dL][dE][dE][dL][dW][dE][dL][dL][dE][dH][dL][dL]; not fully specified (residue 1); listed as Homo sapiens)”, the “In vivo mRNA knockdown (%)” value [1, 4] is reported as 42%, the “In vivo mRNA knockdown (%)” value [1, 5] is reported as 74% and the “In vivo mRNA knockdown (%)” value [1, 6] is reported as 58%. For the same substance, the “lethal at this dose (asterisk at targeted peptide dose)” value (“lethal at this dose” below) [2, 7] was 25*.
In the case of “TGN-S-S-SEQ ID NO: 1419 (D) (C[dF][dL][dE][dE][dL][dW]G[dL][dL][dE][dH][dL][dL]; not fully specified (residue 1); listed as Homo sapiens)”, the “In vivo mRNA knockdown (%)” value [1, 4] is reported as 43%, the “In vivo mRNA knockdown (%)” value [1, 5] is reported as 78% and the “In vivo mRNA knockdown (%)” value [1, 6] is reported as 76%. The “lethal at this dose” value [2, 7] was 25*.
In the case of “TGN-S-S-SEQ ID NO: 1628 (D) ([dC]G[dL][dL][dA][dI]X[dE][dI][dE][dE][dL][dL][dE][dE]G[dL][dE][dN][dL][dI][dD][dW][dW][dN][dS]; not fully specified; also: TGN via disulfide; listed as Homo sapiens)”, the “Mortality (words printed in the knockdown column)” value [2, 8] is reported as “All mice died” and the “lethal at this dose” value [2, 8] is reported as 10*.
In the case of “TGN-S-S-SEQ ID NO: 1654 (D) (CG[dL][dL][dE][dE][dI][dE][dE][dL][dL][dE][dE]G[dL][dE][dN][dL][dI][dD][dW]G[dN][dS]; not fully specified (residue 1); listed as Homo sapiens)”, the “In vivo mRNA knockdown (%)” value ([1]; Table 6, sequential, peptide IV 15 min after siRNA IV, TGN-L-siRNA-III 0.25 mg/kg, peptide 2 mg/kg) is reported as 51%, the “In vivo mRNA knockdown (%)” value ([1]; Table 6, sequential, peptide IV 15 min after siRNA IV, TGN-L-siRNA-III 0.25 mg/kg, peptide 10 mg/kg) is reported as 72% and the “In vivo mRNA knockdown (%)” value ([1]; Table 6, sequential, peptide IV 15 min after siRNA IV, TGN-L-siRNA-III 0.25 mg/kg, peptide 50 mg/kg) is reported as 65%. The “lethal at this dose” value ([2]; Table 6, TGN-L-siRNA-III 0.25 mg/kg IV, peptide 50 mg/kg IV 15 min after siRNA) was 50*.
For “TGN-S-S-SEQ ID NO: 1733 (D): TGN-S-S-peptide, peptide AC-GLFGALAEALAEALAEHLAEALAEALEALAAGGSC”, the “In vivo mRNA knockdown (%)” value [1, 9] was 60%, the “In vivo mRNA knockdown (%)” value [1, 10] was 75% and the “In vivo mRNA knockdown (%)” value ([1]; Table 6, sequential, peptide IV 15 min after siRNA IV, TGN-L-siRNA-II 0.25 mg/kg, peptide 10 mg/kg) was 58%. For the same substance, the “In vivo mRNA knockdown (%)” value ([1]; Table 6, sequential, peptide IV 15 min after siRNA IV, TGN-L-siRNA-II 0.25 mg/kg, peptide 50 mg/kg) was 50%, the “In vivo mRNA knockdown (%)” value [1, 11] was 73% and the “In vivo mRNA knockdown (%)” value ([1]; Table 7, TGN-L-siRNA-II 0.25 mg/kg, peptide 3 mg/kg, Sequential dosing-IV (peptide 15 min after siRNA)) was 69%. For the same substance, the “In vivo mRNA knockdown (%)” value ([1]; Table 7, TGN-L-siRNA-II 0.25 mg/kg, peptide 3 mg/kg, Sequential dosing-SC (peptide 15 min after siRNA)) was 47%, the “In vivo mRNA knockdown (%)” value ([1]; Table 7, TGN-L-siRNA-II 0.25 mg/kg, peptide 10 mg/kg, Sequential dosing-IV (peptide 15 min after siRNA)) was 58% and the “In vivo mRNA knockdown (%)” value ([1]; Table 7, TGN-L-siRNA-II 0.25 mg/kg, peptide 10 mg/kg, Sequential dosing-SC (peptide 15 min after siRNA)) was 67%.
For “TGN-S-S-SEQ ID NO: 1734 (D): TGN-S-S-peptide, peptide AC-GLFEAIEGFIENGWEGLAELAEALEALAAGGSC”, the “In vivo mRNA knockdown (%)” value [1, 11] was 61%.
For “TGN-S-S-SEQ ID NO: 1738 (D) (G[dL][dF]G[dE][dI][dE][dE][dL][dI][dE][dE]G[dL][dE][dN][dL][dI][dD][dW]G[dN]G[dL][dA][dE][dL][dA][dE][dA][dL][dE][dA][dL][dA][dA]GG[dS][dC]; not fully specified; also: disulfide to TGN peptide via C-terminal Cys; listed as Homo sapiens)”, the “In vivo mRNA knockdown (%)” value [1, 9] was 25% and the “In vivo mRNA knockdown (%)” value [1, 10] was 44%.
In the case of “TGN-S-S-SEQ ID NO: 1740 (D): TGN-S-S-peptide, peptide GLFEAIEGFIENGWEGLAELAEALEALAAGGSC (G[dL][dF][dE][dA][dI][dE]G[dF][dI][dE][dN]G[dW][dE]G[dL][dA][dE][dL][dA][dE][dA][dL][dE][dA][dL][dA][dA]GG[dS][dC]; not fully specified; also: disulfide to TGN peptide via C-terminal Cys; listed as Homo sapiens)”, the “In vivo mRNA knockdown (%)” value [1, 9] is reported as 23% and the “In vivo mRNA knockdown (%)” value [1, 10] is reported as 42%.
For “TGN-S-S-SEQ ID NO: 1740 (L): TGN-S-S-peptide, peptide GLFEAIEGFIENGWEGLAELAEALEALAAGGSC (GLFEAIEGFIENGWEGLAELAEALEALAAGGSC(TGN); reading uncertain; also: TGN attached via disulfide (S-S); listed as Homo sapiens)”, the “In vivo mRNA knockdown (%)” value [1, 10] was 20%.
In the case of “TGN-S-S-SEQ ID NO: 1741(L): TGN-S-S-peptide, peptide GLFGALAEALAEALAEHLAEALAEALEALAAGGSC (GLFGALAEALAEALAEHLAEALAEALEALAAGGSC(TGN); reading uncertain; also: TGN attached via disulfide (S-S); listed as Homo sapiens)”, the “In vivo mRNA knockdown (%)” value [1, 10] is reported as 24%.
In the case of “TGN-S-S-SEQ ID NO: 1744 (D) ([dC][dE][dE][dN][dW][dI]G[dL][dF]GGG[dN][dI][dW][dE][dE][dE][dE][dI][dL][dD][dL][dL]; also: disulfide to TGN peptide via N-terminal Cys; listed as Homo sapiens)”, the “In vivo mRNA knockdown (%)” value [1, 4] is reported as 28% and the “In vivo mRNA knockdown (%)” value [1, 5] is reported as 33%.
For “TGN-S-S-SEQ ID NO: 1746 (D): TGN-S-S-peptide, peptide CEALFGKINAIFIGKL ([dC][dE][dA][dL][dF]G[dK][dI][dN][dA][dI][dF][dI]G[dK][dL]; also: disulfide to TGN peptide via N-terminal Cys; listed as Homo sapiens)”, the “In vivo mRNA knockdown (%)” value [1, 4] was 31% and the “In vivo mRNA knockdown (%)” value [1, 5] was 25%.
For “siRNA-IV: CTNNB1 ds siRNA, passenger SEQ ID NO 1807 (clickA, 5Chol), guide SEQ ID NO 1806 (sense CUGUUGGAUUGAUUCGAAAUU; guide TUUCGAAUCAAUCCAACAGUU; clickA; 5' cholesterol; (1)..(1) aminohexyl phosphate inverted abasic cap; (1)..(2) 2′-O-methyl; (3)..(3) 2′-deoxy-2′-fluoro; (4)..(5) 2′-O-methyl; (6)..(8) 2′-deoxy-2′-fluoro; (9)..(10) 2′-O-methyl; (11)..(12) 2′-deoxy-2′-fluoro; (13)..(15) 2′-O-methyl; (16)..(16) 2′-deoxy-2′-fluoro; (17)..(17) 2′ propagyl; (18)..(19) 2′-deoxy-2′-fluoro; (20)..(21) 2′-O-methyl; (20)..(21) phosphorothioate internucleotide linkage; (21)..; (1)..(1) terminal vinyl phosphate; (1)..(1) 2′-methoxyethoxy; (2)..(21) ribonucleotide unmodified or modified as described for this sequence; (2)..(2) 2′-deoxy-2′-fluoro; …)”, the “In vivo mRNA knockdown (%)” value ([1]; Table 6, siRNA-IV 0.5 mg/kg IV, peptide dose 0) was 25%, the “In vivo mRNA knockdown (%)” value ([1]; Table 6, siRNA-IV 2 mg/kg IV, peptide dose 0) was 25% and the “In vivo mRNA knockdown (%)” value ([1]; Table 6, siRNA-IV 5 mg/kg IV, peptide dose 0) was 35%.
With “siRNA-VI: CTNNB1 ds siRNA, passenger SEQ ID NO 1803, guide SEQ ID NO 1809 (sense {NH2C6-invAb}-mCmUfGmUmUfGfGfAmUmUfGfAmUmUmCfGfAfAfAmU*mU[invAb]; guide fUfUfUmCfGfAfAmUmCfAfAmUmCfCfAfAmCfAfGmU*mU)” the “siRNA stability (metabolic stability)” value [3] was “more unstable”.
